Data as given in patent publication US6369047B2, “Androgenic steroid compounds and a method of making and using the same” (Research Triangle Institute, priority 1997, dated 2002).

Experiments:
[1] = system: immature castrated male rats; assay: Androgenic Activity, subcutaneous administration to immature castrated male rats; assay type: in vivo, rat; details: for Androgenic Activity, Levator Ani / Androgenic Activity, Seminal Vesicles / Androgenic Activity, Ventral Prostate: subcutaneous, Testosterone = 100
Description: Androgenic Activity was also evaluated using subcutaneous administration to immature castrated male rats (Testosterone=100).

[2] = target: T1, androgen receptor from rat ventral prostate (Rattus norvegicus, UniProt P15207); assay: Androgen RBA: relative binding to androgen receptor; details: Dihydrotestosterone = 100
T1 construct: androgen receptor from rat ventral prostate; from tissue; host or cells: rat ventral prostate
T1 sequence (P15207 1-902): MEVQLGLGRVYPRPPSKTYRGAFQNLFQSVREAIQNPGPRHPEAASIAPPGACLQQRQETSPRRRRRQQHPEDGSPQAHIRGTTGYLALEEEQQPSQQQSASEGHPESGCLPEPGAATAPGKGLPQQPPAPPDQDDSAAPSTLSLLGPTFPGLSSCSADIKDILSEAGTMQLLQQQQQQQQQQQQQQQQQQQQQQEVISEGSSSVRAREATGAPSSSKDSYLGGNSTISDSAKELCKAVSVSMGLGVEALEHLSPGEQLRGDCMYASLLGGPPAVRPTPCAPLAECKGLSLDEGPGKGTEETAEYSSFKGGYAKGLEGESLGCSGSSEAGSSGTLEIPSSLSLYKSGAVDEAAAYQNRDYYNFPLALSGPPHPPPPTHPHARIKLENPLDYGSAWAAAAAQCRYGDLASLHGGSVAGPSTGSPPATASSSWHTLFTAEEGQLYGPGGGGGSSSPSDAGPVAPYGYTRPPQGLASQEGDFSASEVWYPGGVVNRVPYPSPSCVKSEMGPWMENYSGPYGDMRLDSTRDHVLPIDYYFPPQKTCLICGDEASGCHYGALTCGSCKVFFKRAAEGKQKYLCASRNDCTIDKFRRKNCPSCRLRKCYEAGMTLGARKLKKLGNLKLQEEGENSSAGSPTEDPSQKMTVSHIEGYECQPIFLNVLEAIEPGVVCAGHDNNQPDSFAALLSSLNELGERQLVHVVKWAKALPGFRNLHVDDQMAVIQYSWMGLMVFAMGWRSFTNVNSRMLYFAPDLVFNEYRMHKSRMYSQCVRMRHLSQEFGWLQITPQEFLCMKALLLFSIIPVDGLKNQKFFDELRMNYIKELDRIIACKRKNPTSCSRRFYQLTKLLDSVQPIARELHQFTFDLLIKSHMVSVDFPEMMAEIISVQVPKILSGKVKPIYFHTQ

Male Rats = assay: Long Term Androgenic Activity in Male Rats; assay type: in vivo, rat
[3] = target: T2, estrogen receptor from immature female rat uterus (Rattus norvegicus, UniProt P06211); assay: Estrogen RBA: relative binding to estrogen receptor; details: Estradiol = 100
T2 construct: estrogen receptor from immature female rat uterus; from tissue; host or cells: immature female rat uterus
T2 sequence (P06211 1-600): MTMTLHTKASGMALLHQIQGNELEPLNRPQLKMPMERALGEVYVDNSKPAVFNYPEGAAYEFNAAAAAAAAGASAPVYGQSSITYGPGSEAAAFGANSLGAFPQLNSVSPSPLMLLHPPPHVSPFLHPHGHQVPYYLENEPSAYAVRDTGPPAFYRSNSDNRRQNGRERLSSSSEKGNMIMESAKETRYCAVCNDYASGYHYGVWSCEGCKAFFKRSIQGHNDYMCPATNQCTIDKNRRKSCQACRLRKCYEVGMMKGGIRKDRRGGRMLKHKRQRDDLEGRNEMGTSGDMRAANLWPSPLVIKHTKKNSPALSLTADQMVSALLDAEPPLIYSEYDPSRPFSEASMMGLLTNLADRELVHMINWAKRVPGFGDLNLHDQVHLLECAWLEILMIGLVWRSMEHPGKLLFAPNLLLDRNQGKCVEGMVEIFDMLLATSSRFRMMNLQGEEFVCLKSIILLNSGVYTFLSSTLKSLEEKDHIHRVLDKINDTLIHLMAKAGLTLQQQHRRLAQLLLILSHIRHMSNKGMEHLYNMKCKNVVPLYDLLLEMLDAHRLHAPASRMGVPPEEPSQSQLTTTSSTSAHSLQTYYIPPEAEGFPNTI
Description: (§1) Additionally, Estrogen RBA was determined by relative binding (Estradiol=100) to estrogen receptor from immature female rat uterus, while Estrogenic Activity was determined by subcutaneous administration to immature female rats (Estradiol=100).

immature female rats = assay: Estrogenic Activity, subcutaneous administration to immature female rats; assay type: in vivo, rat; details: Estradiol = 100
Description: as §1

SMILES: C[C@@H]1CC2=CC(=O)CC[C@@H]2[C@H]2CC[C@]3(C)[C@@H](O)CC[C@H]3[C@@H]21 [RTI 1176-024, 7α-methyl-19-nortestosterone]
- Androgenic Activity, Levator Ani [1]: 2510
- Androgenic Activity, Seminal Vesicles [1]: 790
- Androgenic Activity, Ventral Prostate [1]: 609

SMILES: C=C1C[C@]2(C)[C@@H](O)CC[C@H]2[C@H]2[C@H]1[C@H]1CCC(=O)C=C1C[C@H]2C [RTI 1471-034, 17β-Hydroxy-7α-methyl-11-methyleneestr-4-en-3-one]
- Androgenic Activity, Seminal Vesicles [1]: 993
- Androgenic Activity, Ventral Prostate [1]: 1519-2148
- Androgen RBA [2]: 176

SMILES: CCCCCCC(=O)O[C@H]1CC[C@H]2[C@@H]3CCC4=CC(=O)CC[C@]4(C)[C@H]3CC[C@]12C [Testosterone enanthate, reference compound]
- Final Body Weight (% change from control) (Male Rats; 0.6 mg, week 1 after dose): 0%
- Seminal Vesicle Weight (% change from control) (Male Rats; 0.6 mg, week 1 after dose): 452%
- Ventral Prostate Weight (% change from control) (Male Rats; 0.6 mg, week 1 after dose): 409%
- Final Body Weight (% change from control) (Male Rats; 0.6 mg, week 2 after dose): 6%
- Seminal Vesicle Weight (% change from control) (Male Rats; 0.6 mg, week 2 after dose): 318%
- Ventral Prostate Weight (% change from control) (Male Rats; 0.6 mg, week 2 after dose): 339%
- Final Body Weight (% change from control) (Male Rats; 0.6 mg, week 4 after dose): −7%
- Seminal Vesicle Weight (% change from control) (Male Rats; 0.6 mg, week 4 after dose): 281%
- Ventral Prostate Weight (% change from control) (Male Rats; 0.6 mg, week 4 after dose): 291%
- Final Body Weight (% change from control) (Male Rats; 0.6 mg, week 6 after dose): 0%
- Seminal Vesicle Weight (% change from control) (Male Rats; 0.6 mg, week 6 after dose): 248%
- Ventral Prostate Weight (% change from control) (Male Rats; 0.6 mg, week 6 after dose): 405%
- Final Body Weight (% change from control) (Male Rats; 0.6 mg, week 8 after dose): 6%
- Seminal Vesicle Weight (% change from control) (Male Rats; 0.6 mg, week 8 after dose): 187%
- Ventral Prostate Weight (% change from control) (Male Rats; 0.6 mg, week 8 after dose): 150%
- Final Body Weight (% change from control) (Male Rats; 0.6 mg, week 10 after dose): 0%
- Seminal Vesicle Weight (% change from control) (Male Rats; 0.6 mg, week 10 after dose): 179%
- Ventral Prostate Weight (% change from control) (Male Rats; 0.6 mg, week 10 after dose): 130%

SMILES: CCCCCCC(=O)O[C@H]1CC[C@H]2[C@H]3[C@H]([C@@H](C)C[C@]12C)[C@H]1CCC(=O)C=C1C[C@H]3C [RTI 147-029, 7α,11β-dimethyl-17β-heptanoyloxyestr-4-en-3-one]
- Final Body Weight (% change from control) (Male Rats; 0.3 mg, week 1 after dose): 9%
- Seminal Vesicle Weight (% change from control) (Male Rats; 0.3 mg, week 1 after dose): 571%
- Ventral Prostate Weight (% change from control) (Male Rats; 0.3 mg, week 1 after dose): 368%
- Final Body Weight (% change from control) (Male Rats; 0.3 mg, week 2 after dose): 1%
- Seminal Vesicle Weight (% change from control) (Male Rats; 0.3 mg, week 2 after dose): 580%
- Ventral Prostate Weight (% change from control) (Male Rats; 0.3 mg, week 2 after dose): 582%
- Final Body Weight (% change from control) (Male Rats; 0.3 mg, week 4 after dose): 3%
- Seminal Vesicle Weight (% change from control) (Male Rats; 0.3 mg, week 4 after dose): 438%
- Ventral Prostate Weight (% change from control) (Male Rats; 0.3 mg, week 4 after dose): 583%
- Final Body Weight (% change from control) (Male Rats; 0.3 mg, week 6 after dose): −1%
- Seminal Vesicle Weight (% change from control) (Male Rats; 0.3 mg, week 6 after dose): 603%
- Ventral Prostate Weight (% change from control) (Male Rats; 0.3 mg, week 6 after dose): 649%
- Final Body Weight (% change from control) (Male Rats; 0.3 mg, week 8 after dose): −10%
- Seminal Vesicle Weight (% change from control) (Male Rats; 0.3 mg, week 8 after dose): 312%
- Ventral Prostate Weight (% change from control) (Male Rats; 0.3 mg, week 8 after dose): 340%
- Final Body Weight (% change from control) (Male Rats; 0.3 mg, week 10 after dose): −2%
- Seminal Vesicle Weight (% change from control) (Male Rats; 0.3 mg, week 10 after dose): 426%
- Ventral Prostate Weight (% change from control) (Male Rats; 0.3 mg, week 10 after dose): 562%
- Final Body Weight (% change from control) (Male Rats; 0.6 mg, week 1 after dose): 15%
- Seminal Vesicle Weight (% change from control) (Male Rats; 0.6 mg, week 1 after dose): 968%
- Ventral Prostate Weight (% change from control) (Male Rats; 0.6 mg, week 1 after dose): 628%
- Final Body Weight (% change from control) (Male Rats; 0.6 mg, week 2 after dose): 6%
- Seminal Vesicle Weight (% change from control) (Male Rats; 0.6 mg, week 2 after dose): 1428%
- Ventral Prostate Weight (% change from control) (Male Rats; 0.6 mg, week 2 after dose): 778%
- Final Body Weight (% change from control) (Male Rats; 0.6 mg, week 4 after dose): 1%
- Seminal Vesicle Weight (% change from control) (Male Rats; 0.6 mg, week 4 after dose): 1222%
- Ventral Prostate Weight (% change from control) (Male Rats; 0.6 mg, week 4 after dose): 1145%
- Final Body Weight (% change from control) (Male Rats; 0.6 mg, week 6 after dose): 0%
- Seminal Vesicle Weight (% change from control) (Male Rats; 0.6 mg, week 6 after dose): 1777%
- Ventral Prostate Weight (% change from control) (Male Rats; 0.6 mg, week 6 after dose): 1810%
- Final Body Weight (% change from control) (Male Rats; 0.6 mg, week 8 after dose): −16%
- Seminal Vesicle Weight (% change from control) (Male Rats; 0.6 mg, week 8 after dose): 1044%
- Ventral Prostate Weight (% change from control) (Male Rats; 0.6 mg, week 8 after dose): 858%
- Final Body Weight (% change from control) (Male Rats; 0.6 mg, week 10 after dose): 1%
- Seminal Vesicle Weight (% change from control) (Male Rats; 0.6 mg, week 10 after dose): 924%
- Ventral Prostate Weight (% change from control) (Male Rats; 0.6 mg, week 10 after dose): 749%
- potency and duration of action as compared with testosterone enanthate (Male Rats; in words, refers to Table 2): greater potency and longer duration of action

SMILES: C[C@@H]1CC2=CC(=O)CC[C@@H]2[C@@H]2[C@@H]1[C@@H]1CC[C@H](O)[C@@]1(C)C[C@@H]2C [RTI 1176-012, 7α,11β-dimethyl-17β-hydroxyestr-4-en-3-one]
- acute androgenic activity as compared with 7α-methyl-19-nortesterone ([1]; in words, refers to Table 1): marked increase in acute androgenic activity
- Androgenic Activity, Levator Ani [1]: 3800
- Androgenic Activity, Seminal Vesicles [1]: 1540
- Androgenic Activity, Ventral Prostate [1]: 1480
- melting point: 149 to 151 °C
- Estrogen RBA [3]: 0.6
- Androgen RBA [2]: 194
- Estrogenic Activity (immature female rats): 0.8

SMILES: C[C@@H]1C[C@H]2CC(=O)CC[C@@H]2[C@@H]2[C@@H]1[C@@H]1CC[C@H](O)[C@@]1(C)C[C@@H]2C [RTI 1471-032, 7α,11β-dimethyl-17β-hydroxy-5α-estran-3-one]
- Androgenic Activity, Seminal Vesicles [1]: 377
- Androgenic Activity, Ventral Prostate [1]: 742
- Estrogenic Activity (immature female rats): 0.7
